Experimental data taken from patent US9169255B2, “Caffeinated compounds and compositions for treatment of amyloid diseases and synucleinopathies” (ProteoTech Inc, priority 2011, dated 2015).

Experiments:
[1] = target: T1, A53T-mutant human α-synuclein (Homo sapiens, UniProt P37840, A53T); assay: Thioflavin S-positive aggregates in rotenone-treated BE-M17 cells overexpressing A53T α-synuclein; assay type: cell-based
T1 construct: expressed in transfected cells; host or cells: BE-M17 human neuroblastoma cells
Text: To test the therapeutic potential of the compounds, a cell-based assay was utilized. In this assay, rotenone is used to induce mitochondrial oxidative stress and cause α-synuclein aggregation. The assay utilizes the binding of the fluorescent dye Thioflavin S to structures with high β-sheet content, including α-synuclein fibrils. Therefore, quantitative assessment of the extent of Thioflavin S-positive staining of fixed cells is used to test the ability of the test compounds to inhibit/prevent or decrease the amount of α-synuclein aggregates relative to cells that were treated with rotenone only. This study is presented in the following examples.
BE-M17 human neuroblastoma cells stably transfected with A53T-mutant human α-synuclein were obtained. Cell culture reagents were obtained from Gibco/Invitrogen, and cells were grown in OPTIMEM supplemented with 10% FBS, Penicillin (100 units/ml), Streptomycin (100 μg/ml) and 500 μg/ml G418 as previously described (Ostrerova-Golts et al., J. Neurosci., 20:6048-6054, 2000).
Thioflavin S is commonly used to detect aggregated protein structures in situ, including in brain tissue (Vallet et al., Acta Neuropathol., 83:170-178, 1992), and cultured cells (Ostrerova-Golts et al., J. Neurosci., 20:6048-6054, 2000), whereas Thioflavin T is often used as an in vitro reagent to analyze the aggregation of soluble proteins into fibrils enriched in β-pleated sheet structures (LeVine III, Prot. Sci., 2:404-410, 1993). Therefore, Thioflavin S histochemistry was used on cultured cells to detect aggregates containing a high degree of β-pleated structures that formed in response to oxidative stress-inducing agents (in this case rotenone) as previously described, with minor modifications (Ostrerova-Golts et al., J. Neurosci., 20:6048-6054, 2000). Briefly, for these studies cells were grown on Poly-D-Lysine coated glass slide chambers at approximately 4.5−5.5×10^4 cells/cm^2. After 16-18 hours, cells were treated with 500 nM or 2 μM rotenone (Sigma) or vehicle (0.05% DMSO) as indicated. Within 15 minutes of rotenone (or vehicle) addition, compounds were added at the indicated concentration, or mock-treatment was performed in which cell culture media only (no compound) was added. Identical treatments were repeated after 48 hours. After an additional 24 hours, cells were fixed for 25 minutes in 3% paraformaldehyde. After a PBS wash and a deionized water wash, the cells were incubated with 0.015% Thioflavin S in 50% ethanol for 25 minutes, washed twice for four minutes in 50% ethanol and twice for five minutes in deionized water and then mounted using an aqueous-based mountant designed to protect against photobleaching. Aggregates that bind to Thioflavin S were detected with a fluorescent microscope using a High Q FITC filter set (480 to 535 nm bandwidth) and a 20× objective lens unless otherwise indicated. Between 8 and 20 (usually 16-18) representative images per condition were selected and imaged using Q Capture software by an experimenter who was blinded to treatment conditions. To assess the amount of Thioflavin S-positive aggregates, the total area per field covered by Thioflavin S-positive inclusions was determined by image analysis and quantitation. […] Spurious, non-cell associated fluorescence was manually removed. Unless indicated otherwise, comparisons between groups were made by comparing mean relative amounts of Thioflavin S-positive inclusions for a given treatment condition (i.e. cells treated with rotenone only versus cells treated with rotenone and test compound at a given concentration). Statistical analyses were performed with GraphPad Prism (GraphPad Inc). Differences between means (two samples) were assessed by the Student's t test. Differences among multiple means were assessed by one-factor ANOVA followed by Dunnett's post hoc test, compared to rotenone only treated cells. […]

[2] = Plasma and brain pharmacokinetics in mice after intraperitoneal injection; assay type: in vivo; settings: CD-1 female mice, i.p. injection at 50 mg/kg, 7-60 min post-dose; for AUC / Cmax: mouse, plasma, ip
Text: For select compounds in this invention, we have used wild type mice to determine the following plasma pharmacokinetic (PK) parameters: maximal concentration (Cmax), and area under the curve (AUC) as derived from a time versus concentration plot. We have also determined the maximal mouse brain levels, and overall brain exposure over time of select compounds in this invention, expressed as Cmax-brain and AUC-brain, respectively. In order to establish the method, we assessed brain and plasma compound levels over time utilizing 50 mg/kg intraperitoneal (i.p.) injections of 2 control compounds. […] In a typical experiment to assess the compounds in this invention, we used CD-1 female mice with a sample size (n) equal to 4 mice per post-dose time-point (for example, 7, 15, 30, and 60 min post-dose). We chose early time points to assess initial exposure, when we expected plasma and brain exposure to be the high, though we may have missed even higher exposure at earlier time points (between 0 and 7 minutes) since brain and plasma levels were highest in our study at the earliest time point assessed (7 minutes).
For the purpose of these studies, each compound was formulated at 5 mg/mL in 20% polyethylene glycol (PEG)-400 in PBS+0.1% ascorbic acid (w/v). The dose volume was 10 mL/kg of body weight. Mice were administered test compound via intraperitoneal injection, and at about 2-3 minutes before scheduled sacrifice, they were deeply anesthetized with 2.5% avertin. Once anesthetized, whole blood was removed by cardiac puncture, transferred to appropriate EDTA-containing tubes, and immediately chilled on ice. This was followed by complete perfusion of each mouse with >15 ml cold 0.9% saline by cannulation of the left ventricle and clamping of the descending aorta. Brains were harvested, frozen on dry ice and stored at −80° C. for bioanalysis of the test compound. Plasma was extracted from whole blood by standard centrifugation techniques within 1 hour. Compounds were (liquid-liquid) extracted from plasma and brain homogenates using ethyl acetate, followed by HPLC/MS quantitation using methods (i.e. HPLC gradients and mass spectrometry parameters) developed for these novel compounds. All methods established sufficient stability in relevant matrices and solvents, and used internal quantitation controls. Quantitation was achieved using a calibration curve generated with compounds spiked into the appropriate matrix (i.e. 20% PEG-400/PBS+0.1% ascorbic acid). We have established lower limit of quantitative sensitivities of 5-25 ng/ml (plasma) and 5-25 ng/g (brain), sufficient for these studies. Following determination of the brain and plasma concentrations at the various post-dose time points, select plasma (Cmax and AUC) and brain (Cmax-brain and AUC-brain) PK parameters were determined with WinNonLin software (Pharsight Inc). We compared the values determined for the compounds in this invention to the values for the positive control compound that when administered at the same therapeutically relevant route and dose level (i.p. injection at 50 mg/kg) is known to be present in the plasma and the brain at levels sufficient for a biological effect (i.e. reduction of α-synuclein brain levels and improved motor function; data not shown).

With `Cn1c(=O)n(Cc2ccc(O)c(O)c2)c(=O)c2c1ncn2Cc1ccc(O)c(O)c1` [PD-151, 3-Methyl-1,7-bis(3′,4′-dihydroxybenzyl)xanthine] the “reduction of rotenone-induced Thioflavin S-positive aggregates relative to rotenone only-treated cells” value ([1]; 500 nM rotenone, 500 nM compound) was 52%, the “reduction of rotenone-induced Thioflavin S-positive aggregates relative to rotenone only-treated cells” value ([1]; 500 nM rotenone, 2 μM compound) was 84% and the “reduction of rotenone-induced Thioflavin S-positive aggregates relative to rotenone only-treated cells” value ([1]; 2 μM rotenone, 2 μM compound) was 58%. For the same compound, the “reduction of rotenone-induced Thioflavin S-positive aggregates relative to rotenone only-treated cells” value ([1]; 2 μM rotenone, 5 μM compound) was 60%, the AUC-brain [2] was 2,147 min*ng/g and the Cmax-brain [2] was 59.2 ng/g. It also gave an AUC [2] of 3540 ng·h/mL and a Cmax [2] of 5340 ng/mL.
For `Cn1cnc2c1c(=O)n(Cc1ccc(O)c(O)c1)c(=O)n2Cc1ccc(O)c(O)c1` [PD-150, 7-Methyl-1,3-bis(3′,4′-dihydroxy)benzylxanthine], the AUC-brain [2] was 3,048 min*ng/g, the Cmax-brain [2] was 99.5 ng/g and the AUC [2] was 2130 ng·h/mL. The Cmax [2] was 3280 ng/mL.
In the case of `Cn1c(=O)c2c(ncn2Cc2ccc(O)c(O)c2)n(Cc2ccc(O)c(O)c2)c1=O` [PD-152], the “reduction of rotenone-induced Thioflavin S-positive aggregates relative to rotenone only-treated cells” value ([1]; 500 nM rotenone, 2 μM compound) is reported as 54%, the “reduction of rotenone-induced Thioflavin S-positive aggregates relative to rotenone only-treated cells” value ([1]; 500 nM rotenone, 5 μM compound) is reported as 55% and the “reduction of rotenone-induced Thioflavin S-positive aggregates relative to rotenone only-treated cells” value ([1]; 2 μM rotenone, 500 nM compound) is reported as 78%. For the same compound, the “reduction of rotenone-induced Thioflavin S-positive aggregates relative to rotenone only-treated cells” value ([1]; 2 μM rotenone, 2 μM compound) was 79%.
